Assay results from patent US10392412B2, “Platinum anticancer agents” (THE REGENTS OF THE UNIVERSITY OF CALIFORNIA, priority 2015, dated 2019).

Tests used:
MALME-3M cells = conditions: Melanoma
From the text: (§1) The methods that were used by the DTP were described on the DTP website: (https://dtp.nci.nih.gov/discovery_development/nci-60/methodology.htm).

SR cells = conditions: Leukemia
From the text: as §1

HOP-92 cells = conditions: HOP-92, Non-Small Cell Lung
From the text: as §1

SK-OV-3 cells = conditions: SK-OV-3, Ovarian
From the text: as §1

CCRF-CEM cells = conditions: Leukemia
From the text: as §1

OVCAR-4 cells = conditions: OVCAR-4, Ovarian
From the text: as §1

SF-268 cells = conditions: SF-268, Central Nervous System
From the text: as §1

OVCAR-3 cells = conditions: OVCAR-3, Ovarian
From the text: as §1

RXF 393 cells = conditions: RXF 393, Renal
From the text: as §1

UO-31 cells = conditions: UO-31, Renal
From the text: as §1

UACC-257 cells = conditions: UACC-257, Melanoma
From the text: as §1

NCI-ADR-RES cells = conditions: Ovarian
From the text: as §1

NCI-H460 cells = conditions: NCI-H460, Non-Small Cell Lung
From the text: as §1

HCT-15 cells = conditions: HCT-15, Colon
From the text: as §1

SNB-75 cells = conditions: SNB-75, Central Nervous System
From the text: as §1

OVCAR-8 cells = conditions: OVCAR-8, Ovarian
From the text: as §1

786-0 cells = conditions: 786-0, Renal
From the text: as §1

HT29 cells = conditions: HT29, Colon
From the text: as §1

NCI-H226 cells = conditions: NCI-H226, Non-Small Cell Lung
From the text: as §1

KM12 cells = conditions: KM12, Colon
From the text: as §1

K-562 cells = conditions: K-562, Leukemia
From the text: as §1

OVCAR-5 cells = conditions: OVCAR-5, Ovarian
From the text: as §1

ACHN cells = conditions: Renal
From the text: as §1

T-47D cells = conditions: Breast
From the text: as §1

HCC-2998 cells = conditions: HCC-2998, Colon
From the text: as §1

SF-539 cells = conditions: SF-539, Central Nervous System
From the text: as §1

DU-145 cells = conditions: DU-145, Prostate
From the text: as §1

RPMI-8226 cells = conditions: RPMI-8226, Leukemia
From the text: as §1

SK-MEL-28 cells = conditions: SK-MEL-28, Melanoma
From the text: as §1

SK-MEL-5 cells = conditions: SK-MEL-5, Melanoma
From the text: as §1

SN12C cells = conditions: Renal
From the text: as §1

A549/ATCC cells = conditions: Non-Small Cell Lung
From the text: as §1

MDA-MB-231/ATCC cells = conditions: Breast
From the text: as §1

M14 cells = conditions: M14, Melanoma
From the text: as §1

UACC-62 cells = conditions: UACC-62, Melanoma
From the text: as §1

PC-3 cells = conditions: PC-3, Prostate
From the text: as §1

HS 578T cells = conditions: Breast
From the text: as §1

NCI-H23 cells = conditions: NCI-H23, Non-Small Cell Lung
From the text: as §1

IGROV1 cells = conditions: IGROV1, Ovarian
From the text: as §1

NCI-H522 cells = conditions: NCI-H522, Non-Small Cell Lung
From the text: as §1

COLO 205 cells = conditions: COLO 205, Colon
From the text: as §1

HCT-116 cells = conditions: HCT-116, Colon
From the text: as §1

MDA-MB-468 cells = conditions: MDA-MB-468, Breast
From the text: as §1

SF-295 cells = conditions: SF-295, Central Nervous System
From the text: as §1

CAKL-1 cells = conditions: CAKL-1, Renal
From the text: as §1

MDA-MB-435 cells = conditions: MDA-MB-435, Melanoma
From the text: as §1

EKVX cells = conditions: Non-Small Cell Lung
From the text: as §1

MOLT-4 cells = conditions: MOLT-4, Leukemia
From the text: as §1

What does the source list for [Pt(DMSO)methotrexate(Cl)] [SM-69]?
Log10GI50 (MALME-3M cells): −4.71 M; Log10GI50 (SR cells): −5.52 M; Log10GI50 (HOP-92 cells): −4.00 M; Log10GI50 (SK-OV-3 cells): −4.00 M; Log10GI50 (CCRF-CEM cells): −5.39 M; Log10GI50 (OVCAR-4 cells): −4.00 M; Log10GI50 (SF-268 cells): −5.04 M; Log10GI50 (OVCAR-3 cells): −4.15 M; Log10GI50 (RXF 393 cells): −4.63 M; Log10GI50 (UO-31 cells): −4.92 M; Log10GI50 (UACC-257 cells): −4.01 M; Log10GI50 (NCI-ADR-RES cells): −5.20 M; Log10GI50 (NCI-H460 cells): −5.34 M; Log10GI50 (HCT-15 cells): −5.04 M; Log10GI50 (SNB-75 cells): −4.39 M; Log10GI50 (OVCAR-8 cells): −5.36 M; Log10GI50 (786-0 cells): −5.46 M; Log10GI50 (HT29 cells): −5.25 M; Log10GI50 (NCI-H226 cells): −4.61 M; Log10GI50 (KM12 cells): −5.17 M; Log10GI50 (K-562 cells): −5.79 M; Log10GI50 (OVCAR-5 cells): −4.61 M; Log10GI50 (ACHN cells): −5.12 M; Log10GI50 (T-47D cells): −4.08 M; Log10GI50 (HCC-2998 cells): −4.95 M; Log10GI50 (SF-539 cells): −5.19 M; Log10GI50 (DU-145 cells): −5.18 M; Log10GI50 (RPMI-8226 cells): −4.94 M; Log10GI50 (SK-MEL-28 cells): −4.00 M; Log10GI50 (SK-MEL-5 cells): −4.12 M; Log10GI50 (SN12C cells): −5.29 M; Log10GI50 (A549/ATCC cells): −5.30 M; Log10GI50 (MDA-MB-231/ATCC cells): −4.00 M; Log10GI50 (M14 cells): −5.41 M; Log10GI50 (UACC-62 cells): −4.90 M; Log10GI50 (PC-3 cells): −5.35 M; Log10GI50 (HS 578T cells): −4.00 M; Log10GI50 (NCI-H23 cells): −4.45 M; Log10GI50 (IGROV1 cells): −4.11 M; Log10GI50 (NCI-H522 cells): −4.74 M; Log10GI50 (COLO 205 cells): −4.34 M; Log10GI50 (HCT-116 cells): −5.50 M; Log10GI50 (MDA-MB-468 cells): −5.08 M; Log10GI50 (SF-295 cells): −5.46 M; Log10GI50 (CAKL-1 cells): −5.23 M; Log10GI50 (MDA-MB-435 cells): −5.36 M; Log10GI50 (EKVX cells): −4.16 M; Log10GI50 (MOLT-4 cells): −5.30 M
